Experiments:
Assay type in all cases: biochemical
[1] = target: T1, NADPH-flavin reductase (Homo sapiens, UniProt P30043); test: NADPH metHb reductase / NADPH diaphorase (NADPH-flavin reductase) activity with methylene blue; details: 37° C., methylene blue substrate, decrease of absorbance at 340 nm
T1 construct: from tissue; host or cells: human red blood cells (expired donated blood), crude stroma-free haemolysate (SFHb)
T1 sequence (P30043 1-206): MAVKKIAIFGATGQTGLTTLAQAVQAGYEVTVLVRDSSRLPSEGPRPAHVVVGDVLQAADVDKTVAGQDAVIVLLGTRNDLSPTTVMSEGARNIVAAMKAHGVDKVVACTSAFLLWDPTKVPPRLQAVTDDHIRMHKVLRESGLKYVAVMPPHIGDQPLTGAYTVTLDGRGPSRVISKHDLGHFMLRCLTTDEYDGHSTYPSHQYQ
Experimental: Determination of NADPH-flavin reductase activity may be carried out according to Beutler, E. (RED CELL METABOLISM: A MANUAL OF BIOCHEMICAL METHOD, Grune &Stratton, Inc., pp. 79-80 (1987)). The principle of determination of this method is to measure […]. The reaction of reducing methylene bleu (MeBl) to leucomethylene blue (LeukMeBl) as follows:
NADPH+H^++MeBl→NADP^++LeukMeBl
the reaction is known to be slow. The enzyme activity is measured by tracing the degree of acceleration by adding sample comprising oxygen. The measurement is carried out based on the above-mentioned principle by measuring the change (decrease) in absorbance at 340 nm which is the characteristic absorption of the consumed NADPH.
The activity of NADH-cytochrome b5 reductase in the above-mentioned purified and concentrated HbCO solution was determined as NADH-ferricyanide reductase activity according to Beutler, E. above. Diluted Hb samples comprising the enzyme to be measured is mixed with a buffer comprising NADH. […] The decrease of difference of absorbance at 340 nm, a characteristic absorption of NADH, per minute was measured to determine activity unit E (IU/gHb). […] The decrease of difference of absorbance at 340 nm, a characteristic absorption of NADPH, per minute was measured to determine activity unit E (IU/gHb). […]

[2] = target: T2, NADH-cytochrome b5 reductase (Homo sapiens, UniProt P00387); test: NADH-cytochrome b5 reductase activity determined as NADH-ferricyanide reductase activity; details: 30° C., potassium ferricyanide substrate, decrease of absorbance at 340 nm
T2 construct: from tissue; host or cells: human red blood cells (expired donated blood), crude stroma-free haemolysate (SFHb)
T2 sequence (P00387 1-278 isoform P00387-2): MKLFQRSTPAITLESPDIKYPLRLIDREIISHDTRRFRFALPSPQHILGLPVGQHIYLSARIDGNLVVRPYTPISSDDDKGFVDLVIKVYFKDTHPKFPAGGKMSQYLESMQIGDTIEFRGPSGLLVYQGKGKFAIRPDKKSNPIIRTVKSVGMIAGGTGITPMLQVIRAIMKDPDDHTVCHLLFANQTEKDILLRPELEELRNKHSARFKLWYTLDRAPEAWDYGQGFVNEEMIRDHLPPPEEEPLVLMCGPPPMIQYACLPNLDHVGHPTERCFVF
Experimental: For the enzyme for reducing metHb herein, “substantially free of enzyme activity” means that the enzyme activity is 10%, 5%, 3%, 1%, 0.5%, 0.2%, 0.1%, 0.05% or 0.03% or less, or below detectable limits, of enzyme activity of the enzyme for reducing metHb existing in the Hb solution purified and concentrated from blood derived from humans or domestic animals. The enzyme activity of the enzyme for reducing metHb herein disclosed herein is determined, for example, by the following procedure. Determination of NADH-cytochrome b5 reductase may be carried out according to Beutler, E. (RED CELL METABOLISM: A MANUAL OF BIOCHEMICAL METHOD, Grune &Stratton, Inc., pp. 81-82 (1987)). […]
the enzyme activity is measured by tracing the degree of acceleration by adding sample comprising oxygen. The measurement is carried out by measuring the change (decrease) in absorbance at 340 nm which is the characteristic absorption of the consumed NADH.
The activity of NADH-cytochrome b5 reductase in the above-mentioned purified and concentrated HbCO solution was determined as NADH-ferricyanide reductase activity according to Beutler, E. above. Diluted Hb samples comprising the enzyme to be measured is mixed with a buffer comprising NADH. […] The decrease of difference of absorbance at 340 nm, a characteristic absorption of NADH, per minute was measured to determine activity unit E (IU/gHb). […]

[3] = Catalase (pseudo CAT) activity from change of absorbance at 230 nm of H2O2
Experimental: (§1) The activity of NADH-cytochrome b5 reductase in the above-mentioned purified and concentrated HbCO solution was determined as NADH-ferricyanide reductase activity according to Beutler, E. above. Diluted Hb samples comprising the enzyme to be measured is mixed with a buffer comprising NADH. The mixed solutions were left standing for 10 minutes at 30° C., and then potassium ferricyanide (K3Fe (CN)6), the enzyme substrate, was added to start the enzyme reaction. The decrease of difference of absorbance at 340 nm, a characteristic absorption of NADH, per minute was measured to determine activity unit E (IU/gHb). […] It was reasoned that the heat-labile NADH-cytochrome b5 reductase was eliminated as denatured and insoluble, or denatured and inactivated, due to the introduction of heat treatment during the purifying step. In addition, activities of NADPH metHb reductase and NADPH diaphorase, which correspond to NADPH-flavin reductase are also determined by the above-mentioned methods according to Beutler, E. Diluted blood samples comprising the enzyme to be measured is mixed with a buffer comprising NADPH. The mixed solutions were left standing for 10 minutes at 37° C., and then methylene bleu (MeBl), the enzyme substrate, was added to start the enzyme reaction. The decrease of difference of absorbance at 340 nm, a characteristic absorption of NADPH, per minute was measured to determine activity unit E (IU/gHb). […] Catalase activity of the purified HbCO solution was determined from the change of the absorbance at 230 nm, the absorption wavelength of H2O2, according to Beutler, E. (RED CELL METABOLISM: A MANUAL OF BIOCHEMICAL METHOD, Grune &Stratton, Inc. pp. 105-106 (1987)). […] Pyrogallol was used for measurement of SOD activity (Marklund, S. and Marklund, G., Eur. J. Biochem. 47, 469-474 (1974); Roth, E. F. Jr. and Gilbert, H. S., Anal. Biochem. 137, 50-53(1984)). Pyrogallol is oxidized with oxygen to generate superoxide, and further reacted to generate a yellow dye with absorbance at 420 nm. SOD inhibits this reaction. SOD enzyme activity was determined based on this inhibitory activity. Analyzed specimens were solutions of purified HbO2, HbCO, metHb and solutions thereof further comprising NADH or L-tyrosine In addition, enzyme activity of crude SFHb solution was also determined as a control. […] When NADH and HbO2 were coexisted, however, high CAT and SOD pseudo activities (Table 1). […] The pseudo activity was detected when NADH alone was present, however, the activity was about a tenth ( 1/10) compared with when HbO2 was coexisted. […] There were results showing that this pseudo activity increased as more NADH was added.

[4] = target: T3, HbO2 (Homo sapiens, UniProt P68871+P69905); test: Screening of suppressing effect of compounds against autoxidation of HbO2; details: HbO2 10 g/dL, antioxidant 1 g/dL, 37° C., 24 hours
T3 construct: The Hb released by hemolysis was filtered and collected, with the red blood cell membrane components (stroma) separated and removed; from tissue; host or cells: human red blood cells (expired donated blood); heat-treated, nanofiltered, purified and concentrated HbCO, photoconverted to HbO2
T3 sequence (P69905 2-142 limits assumed): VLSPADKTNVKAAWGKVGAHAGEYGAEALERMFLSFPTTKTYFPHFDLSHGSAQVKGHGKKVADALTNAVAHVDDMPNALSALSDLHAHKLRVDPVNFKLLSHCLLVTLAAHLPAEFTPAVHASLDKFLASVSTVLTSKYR
T3 sequence (P68871 2-147 limits assumed): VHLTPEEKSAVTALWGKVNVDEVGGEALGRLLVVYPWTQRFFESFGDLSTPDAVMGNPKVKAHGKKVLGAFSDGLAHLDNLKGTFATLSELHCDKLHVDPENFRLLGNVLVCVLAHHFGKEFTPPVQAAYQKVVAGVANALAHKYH
Experimental: NADH was purchased from Oriental Yeast Co. Ltd., and all the rest were purchased from Sigma-Aldrich (St. Louis, Mo., USA). HbCO solution was transferred to an eggplant flask and irradiated with visible light (halogen lamp; LPL Videeoligtvl-302, LPLCO. Ltd., Tokyo, Japan) under oxygen gas flow to convert to HbO2. […] The conversion ratios to metHb were determined from the visible absorption spectrum. The measurement of spectrum between 300 nm to 500 nm was conducted using a spectrophotometer (V-660, Japan Spectroscopic Company (JASCO)) mounted with a device to control the light scattering to the minimum (an integrating sphere). The atmosphere inside of a Thunberg cuvette was replaced with nitrogen gas and the conversion ratios to metHb were determined from the ratios of absorbance at 405 nm (λmax of metHb) and 430 nm (λmax of deoxyHb).

[5] = SOD (pseudo SOD) activity, pyrogallol method; details: ratio
Experimental: as §1

[6] = target: T3, HbO2; test: Oxidant-promoted metHb conversion in non-encapsulated HbO2 solution with NADH (absorbance at 630 nm); details: 10 and 40 minutes, vs no NADH
Experimental: To examine the suppression of Hb oxidation by encapsulation of NADH further in detail, similar experiments were carried out for Hb solution which was not encapsulated.
(1) First, metHb conversion supplemented with NOC7 was studied. To a cuvette with an optical path length of 1 cm, 3 mL of phosphate buffered saline, 30 μL of HbO2 solution (1.5 mM), 30 μL of NADH solution (1.5 mM) and 30 μL of NOC (1.5 mM in PBS) were mixed and the change of absorbance at 630 nm, the absorption wavelength of metHb, at 25° C. was immediately monitored for 10 minutes and for 40 minutes (FIGS. 6A and 6B). In the graphs of FIGS. 6A and 6B, the absorbance at 630 nm was put on the vertical axis and incubation time (second) was put on the horizontal axis. The three lines in FIG. 6A represent a change over time of metHb when the solution comprising HbO2 and NADH was supplemented with NOC7 (HbO2+NADH+NOC7), a change over time of metHb when the solution comprising HbO2 but not NADH was supplemented with NOC7 (HbO2+NOC7) and a change over time of metHb when the solution comprising HbO2 was neither supplemented with NADH nor NOC7 (HbO2+water). […] To a cuvette with an optical path length of 1 cm, 3 mL of PBS, 30 μL of HbO2 solution (1.5 mM), 30 μL of NADH solution (1.5 mM) and 30 μL of H2O2 (1.5 mM) were mixed and the change of absorbance at 630 nm at 25° C. was immediately monitored for 10 minutes and for 40 minutes (FIGS. 7A and 7B). In the graphs of FIGS. 7A and 7B, the absorbance at 630 nm was put on the vertical axis and incubation time (second) was put on the horizontal axis. […] To a cuvette with an optical path length of 1 cm, 3 mL of PBS, 30 μL of HbO2 solution (1.5 mM), 30 μL of NADH solution (1.5 mM) and 30 μL of NaNO2 (1.5 mM in PBS) were mixed and the change of absorbance at 630 nm at 25° C. was immediately monitored for 10 minutes and for 40 minutes (FIGS. 8A and […]). In the graphs of FIGS. 8A and […], the absorbance at 630 nm was put on the vertical axis and incubation time (second) was put on the horizontal axis. […]

purified and concentrated Hb: human Hb purified with heat treatment (60° C., 12 hours) and nanofiltration, concentrated to 40 to 42 g/dL
NADPH metHb reductase / NADPH diaphorase (NADPH-flavin reductase) activity (activity unit E) [1]: below 0.01 IU/gHb | NADPH metHb reductase / NADPH diaphorase (NADPH-flavin reductase) activity (activity unit E) ([1]; listed as Hb solution): does not show enzymatic activities | NADH-cytochrome b5 reductase activity (activity unit E) [2]: did not detect any activity | NADH-cytochrome b5 reductase activity (activity unit E) ([2]; listed as Hb solution): does not show enzymatic activities | Catalase activity ([3]; change of absorbance at 230 nm of H2O2, Example 1): ≤ 0.03×10^4 IU/gHb

NC(=O)C1=CN([C@@H]2O[C@H](COP(=O)(O)OP(=O)(O)OC[C@H]3O[C@@H](n4cnc5c(N)ncnc54)[C@H](O)[C@@H]3O)[C@@H](O)[C@H]2O)C=CC1 [NADH, nicotinamide adenine dinucleotide (NADH)]
metHb conversion (%) [4]: 17% | SOD pseudo activity of NADH alone compared with when HbO2 was coexisted [5]: 1/10 | increase of metHb-specific absorbance at 630 nm ([6]; HbO2 solution + H2O2, 25° C.): remarkably suppressed | increase of metHb-specific absorbance at 630 nm ([6]; HbO2 solution + NOC7, 25° C.): remarkably suppressed | increase of metHb-specific absorbance at 630 nm ([6]; HbO2 solution + NaNO2, 25° C.): remarkably suppressed | CAT pseudo activity of NADH alone compared with when HbO2 was coexisted ([3]; ratio): 1/10
